Experimental data: publication PMC8518114, “Safety, tolerability and pharmacokinetics of emodepside, a potential novel treatment for onchocerciasis (river blindness), in healthy male subjects” (British Journal of Clinical Pharmacology, 2021)
Where two headings read alike, the source gives them in different places.

Test: Plasma pharmacokinetics of emodepside, multiple ascending dose (MAD) study
Type: in vivo, human
Details: for AUC 0–24 /D / C max /D / AUC last /D / t ½ 0–24 (dominant half-life) / AUC 0–24 / Cmax: mean (CV%); for t ½ 0–24 (dominant half-life): Day 10, terminal slope of log concentration–time (0–24 hr) curve; for Cmax/Ctrough ratio: after the last dose on Day 10; for MRT: Day 1, mean (CV%); for AUC 0–24 / Cmax: HPLC-MS/MS; for CL/F: read-out: CL ss /F (converted); for Vd/F: read-out: V z /F; for half-life: read-out: Terminal t ½ (converted)
Experimental: Emodepside and placebo were supplied as a LSF and a standard immediate‐release (IR) tablet. The LSF was a 0.1% (w/v) solution containing 1 mg emodepside/mL. Conventional IR tablets containing emodepside in crystalline form were supplied in 2 dosage strengths, 5 and 20 mg, for the single ascending dose (SAD) study.
Blood samples (5 mL) were collected by venepuncture or via a cannula into EDTA tubes and immediately placed on ice. Samples were centrifuged at 1500 g for 10 minutes at 4°C. The plasma was aliquoted into 2 polypropylene tubes, which were stored at −20°C. Blood samples for PK analysis were taken at the following time points: • SAD: predose and 0.5, 1, 1.5, 2, 2.5, 3, 4, 5, 6, 8, 12, 24, 36, 48, 72, 96, 120, 144 and 168 hours, and 21 days postdose (cohort 1–9) or predose and 0.5, 1, 3, 6, 8, 12, 24, 36, 48, 72, 96, 120, 144 and 168 hours, and 10, 14, 18 and 21 days postdose (cohort 10). • Multiple ascending dose (MAD), as below: • on Day 1: predose and at 0.25, 0.5, 1, 1.5, 2, 2.5, 3, 4, 6, 8, 12 and 15 hours postdose • on Days 2–9: before the morning dose • on Day 10: before and at 0.25, 0.5, 1, 1.5, 2, 2.5, 3, 4, 6, 8, 12 and 15 hours • on Days 11, 12, 13, 14, 15, 18, 21, 24 and 30.
Emodepside plasma concentrations were determined by a validated high performance liquid chromatography–tandem mass spectrometry assay, using a Alltima C18 5 μm 150 mm x 2.1 mm column and an Applied Biosystems API4000 Turbo Ion Spray detector using positive ion mode. Analyst version 1.3.2 or 1.6.3 software, obtained from AB Sciex UK Ltd, Warrington, UK was used for chromatogram data analysis and quantitative calculations. Deuterated emodepside‐D16 was used as the internal standard. The lower limit of quantitation for emodepside in plasma was 1 ng/mL. Values below this limit were not used to calculate the PK parameters, except values that were below the limit of quantification before Cmax, which were set to zero.
The highest observed plasma concentration (Cmax) was determined directly from concentration–time data, as was the time to reach maximum plasma concentration (tmax). The area under the plasma concentration–time curve from time zero (predose) to the time of last quantifiable concentration (AUC0‐last) was calculated using the linear‐log trapezoidal rule. Elimination half‐life (t1/2) was calculated by the equation ln2/λz.
Statistical analyses were performed using SAS version 9.3 (Cary, NC, USA). Demographic data and baseline characteristics were listed and summarised. […] PK parameters were derived from plasma concentration vs. time data using a noncompartmental analysis in Phoenix WinNonlin version 7 (Certara Inc., Princeton, NJ, USA). Plasma concentration vs. time data and PK parameters were listed, and summarised by treatment, using descriptive statistics. Mean concentrations were calculated only if at least ⅔ of the individual concentrations were above the lower limit of quantification. […] Planned sampling times were used to summarise plasma‐concentration data; actual sampling times were used in the derivation of PK parameters.

[1] = 5 mg OD LSF fasting, Day 1, dose-normalised
[2] = 5 mg OD LSF fasting, Day 10, dose-normalised
[3] = 10 mg BID LSF fasting, Day 1, dose-normalised
[4] = 10 mg BID LSF fasting, Day 10, dose-normalised
[5] = 10 mg OD LSF fasting, Day 1, dose-normalised
[6] = 10 mg OD LSF fasting, Day 10, dose-normalised
[7] = human, plasma, po, 5 mg, 5 mg OD LSF fasting, Day 1, plasma
[8] = human, plasma, po, 5 mg, 5 mg OD LSF fasting, Day 10, mean (CV%)
[9] = human, plasma, po, 5 mg, 5 mg OD LSF fasting, Day 10, plasma
[10] = human, plasma, po, 10 mg, 10 mg BID LSF fasting, Day 1, plasma
[11] = human, plasma, po, 10 mg, 10 mg BID LSF fasting, Day 10, mean (CV%)
[12] = human, plasma, po, 10 mg, 10 mg BID LSF fasting, Day 10, plasma
[13] = human, plasma, po, 10 mg, 10 mg OD LSF fasting, Day 1, plasma
[14] = human, plasma, po, 10 mg, 10 mg OD LSF fasting, Day 10, mean (CV%)
[15] = human, plasma, po, 10 mg, 10 mg OD LSF fasting, Day 10, plasma

## CC(C)C[C@H]1C(=O)O[C@H](Cc2ccc(N3CCOCC3)cc2)C(=O)N(C)[C@@H](CC(C)C)C(=O)O[C@H](C)C(=O)N(C)[C@@H](CC(C)C)C(=O)O[C@H](Cc2ccc(N3CCOCC3)cc2)C(=O)N(C)[C@@H](CC(C)C)C(=O)O[C@H](C)C(=O)N1C [emodepside]
[1]
  AUC 0–24 /D: 115 (19.7) [h.ng/mL]/mg
  C max /D: 18.8 (17.8) [ng/mL]/mg
5 mg OD LSF fasting, Day 1, median (range)
  Tmax: 1.00 (1.00–1.07) h
[2]
  AUC 0–24 /D: 338 (31.3) [h.ng/mL]/mg
  AUC last /D: 3872 (29.9) [h.ng/mL]/mg
  C max /D: 29.9 (17.9) [ng/mL]/mg
5 mg OD LSF fasting, Day 10, mean (CV%)
  λ z: 0.00166 (42.6) 1/h
5 mg OD LSF fasting, Day 10, mean (CV%), geometric mean
  Terminal t ½: 419 (42.6) h
5 mg OD LSF fasting, Day 10, median (range)
  Tmax: 1.00 (1.00–1.50) h
5 mg OD LSF fasting
  t ½ 0–24 (dominant half-life): 26.9 (52.4) h
[3]
  AUC 0–24 /D: 71.4 (26.5) [h.ng/mL]/mg
  C max /D: 16.0 (20.4) [ng/mL]/mg
10 mg BID LSF fasting, Day 1, median (range)
  Tmax: 1.00 (1.00–1.58) h
[4]
  AUC 0–24 /D: 490 (35.8) [h.ng/mL]/mg
  AUC last /D: 5955 (29.1) [h.ng/mL]/mg
  C max /D: 34.9 (27.1) [ng/mL]/mg
10 mg BID LSF fasting, Day 10, mean (CV%)
  λ z: 0.00137 (56.9) 1/h
10 mg BID LSF fasting
  t ½ 0–24 (dominant half-life): 33.2 (55.0) h
10 mg BID LSF
  Cmax/Ctrough ratio: 1.9
[5]
  AUC 0–24 /D: 113 (32.7) [h.ng/mL]/mg
  C max /D: 18.6 (21.3) [ng/mL]/mg
[6]
  AUC 0–24 /D: 349 (44.2) [h.ng/mL]/mg
  AUC last /D: 4065 (43.5) [h.ng/mL]/mg
  C max /D: 28.7 (39.7) [ng/mL]/mg
10 mg OD LSF fasting, Day 10, mean (CV%)
  λ z: 0.00154 (30.6) 1/h
10 mg OD LSF fasting, Day 10, median (range)
  Tmax: 1.25 (1.00–2.00) h
10 mg OD LSF fasting
  t ½ 0–24 (dominant half-life): 18.4 (30.0) h
10 mg OD LSF
  Cmax/Ctrough ratio: 3.0
507 hours after the last morning dose, LLOQ 1 ng/mL
  Emodepside levels at the final sampling timepoint: still quantifiable in all subjects
LSF
  Geometric mean Cmax on Day 10, 10 mg BID group vs 10 mg OD group: 1.2 fold
human, plasma, po, 5 mg, 5 mg OD LSF fasting
  MRT: 7.28 h
[7]
  AUC 0–24: 574 ng·h/mL
  Cmax: 93.8 ng/mL
[8]
  CL/F: 49.3 mL/min
  Vd/F: 1790 L
[9]
  AUC 0–24: 1690 ng·h/mL
  Cmax: 149 ng/mL
human, plasma, po, 10 mg, 10 mg BID LSF fasting
  MRT: 10.8 h
[10]
  AUC 0–24: 1430 ng·h/mL
  Cmax: 160 ng/mL
human, plasma, po, 10 mg, 10 mg BID LSF fasting, Day 10, mean (CV%), geometric mean
  half-life: 508 h
[11]
  CL/F: 59.3 mL/min
  Vd/F: 2610 L
human, plasma, po, 10 mg, 10 mg BID LSF fasting, Day 10, median (range), read-out: t max
  Tmax: 1.5 h
[12]
  AUC 0–24: 4900 ng·h/mL
  Cmax: 349 ng/mL
human, plasma, po, 10 mg, 10 mg OD LSF fasting
  MRT: 7 h
human, plasma, po, 10 mg, 10 mg OD LSF fasting, Day 1, median (range), read-out: t max
  Tmax: 1.25 h
[13]
  AUC 0–24: 1140 ng·h/mL
  Cmax: 186 ng/mL
human, plasma, po, 10 mg, 10 mg OD LSF fasting, Day 10, mean (CV%), geometric mean
  half-life: 450 h
[14]
  CL/F: 47.8 mL/min
  Vd/F: 1860 L
[15]
  AUC 0–24: 3490 ng·h/mL
  Cmax: 287 ng/mL
